The target of test [1] is T1, human M3 muscarinic acetylcholine receptor (Homo sapiens, UniProt P20309).
T1 construct: host or cells: CHO-K1 cells, stably transfected
In words: R-CEPIAer ER calcium assay of Gq-coupled receptor activation, M3-transfected CHO-K1 cells. It counts as cell-based. As to the method: (§1) The binding of antagonists to Gq-coupled receptors was determined by measuring IP3-mediated calcium depletion from the endoplasmic reticulum (ER). This was accomplished using CHO-K1 cells stably transfected with human M3 muscarinic acetylcholine receptor (CEM3000000, cDNA Resource Center, Bloomsburg University) and R-CEPIAer, a low affinity ER-targeted calcium indicator fluorescent protein ([Suzuki et al., 2014]). R-CEPIAer reporting of ER calcium concentration was assessed using 564 nm excitation light (>590 long-pass emission) at 20 second intervals on a Nikon swept-field confocal microscope using slit-scan mode, 2x2 Binning, and 100 millisecond frames. F/Fmax was fluorescence intensity normalized to maximal fluorescence intensity during the experiment. The response of cells to Gq-coupled receptor agonist were measured as the change in F/Fmax (ΔF/Fmax) from preagonist value to fluorescence minimum during agonist application (that occurs by IP3-mediated ER calcium depletion). […] Perfusion of each agonist application was for 2 min, while the antagonist overlapped and preceded the second agonist application by 3 min. […] IC50 was calculated by assaying fractional inhibition using a dose-response of antagonist concentrations (i.e. Figure 1D ). For assays of other receptors such as the M1 and M5 muscarinic receptors, H1 histamine and P2Y1 purinergic receptors, these receptors were transiently co-transfected with the pCMV R-CEPIAer plasmid (a gift from Masamitsu Iino (Addgene plasmid # 58216; http://n2t.net/addgene:58216; RRID : Addgene_58216)) into CHO cells using polyethylenimine [according to previous methods ([Longo et al., 2013])]. IC50 and EC50 values were estimated by fitting the dose-response relationship to a Hill equation.
To obtain a pKB using a Schild analysis ([Arunlakshana and Schild, 1959]), the acetylcholine EC50 was measured in the absence of UCL1684 and EC50′ measured in the presence of increasing concentrations of UCL1684. These values were used to calculate a dose ratio (DR = EC50′/EC50) for each UCL1684 concentration. The log(DR − 1) was plotted vs. log UCL1684 concentrations and fit to a linear equation where the theoretical X-intercept was used to estimate a pKB.

A further test concerns the target T2, histamine receptor H1 (Homo sapiens, UniProt P35367).
T2 construct: expressed in transfected cells; host or cells: CHO cells, transiently co-transfected with pCMV R-CEPIAer
In words: R-CEPIAer ER calcium assay, CHO cells transfected with H1 receptor. Particulars: data not shown. It counts as cell-based. As to the method: as §1, with “For assays of other receptors such as the M1 and M5 muscarinic receptors, H1 histamine and P2Y1 purinergic receptors, these receptors were transiently co-transfected with the pCMV R-CEPIAer plasmid (a gift from Masamitsu Iino (Addgene plasmid # 58216; http://n2t.net/addgene:58216; RRID : Addgene_58216)) into CHO cells using polyethylenimine [according to previous methods ([Longo et al., 2013])]. IC50 and EC50 values were estimated by fitting the dose-response relationship to a Hill equation.” left out

The subject of test [2] is human primary bronchial smooth muscle cells stably transfected with the human M3 muscarinic receptor. Nature of the test: Cytosolic calcium imaging in human bronchial smooth muscle cells. It counts as cell-based. As to the method:
TSM cells were placed on a coverslip in a 1 ml perfusion chamber on an inverted microscope and incubated with 20 μM Cal-520 AM dye (AAT Bioquest, Sunnyvale, California, USA) in 0.2% Pluronic F-127 and 1 mM probenecid in HBSS at room temperature for 30 min. The chamber was fitted with a top adaptor and coverslip (Warner Instruments, RC37WC) to establish a closed perfusion chamber. The cells were imaged at 20 second intervals using 488 nm excitation on a Nikon swept-field confocal microscope using slit-scan mode, 2×2 Binning, and 100 millisecond frames.
Due to the loss of functional muscarinic receptors in primary bronchial smooth muscle cells in culture, calcium imaging was performed in human primary bronchial smooth muscle cells (ScienCell, passage 3) stably transfected with the human M3 muscarinic receptor. Human M3 receptor transfected clones were stably selected with G418, and individual clones were expanded to a 10 cm dish and frozen into aliquots, and analyzed after a maximum of two additional passages.

The next test has as its system SK potassium channels. Particulars: ref Campos Rosa et al., 1996; read-out: IC50, block of SK channels; cited from earlier work.

T1 sequence (P20309 whole entry): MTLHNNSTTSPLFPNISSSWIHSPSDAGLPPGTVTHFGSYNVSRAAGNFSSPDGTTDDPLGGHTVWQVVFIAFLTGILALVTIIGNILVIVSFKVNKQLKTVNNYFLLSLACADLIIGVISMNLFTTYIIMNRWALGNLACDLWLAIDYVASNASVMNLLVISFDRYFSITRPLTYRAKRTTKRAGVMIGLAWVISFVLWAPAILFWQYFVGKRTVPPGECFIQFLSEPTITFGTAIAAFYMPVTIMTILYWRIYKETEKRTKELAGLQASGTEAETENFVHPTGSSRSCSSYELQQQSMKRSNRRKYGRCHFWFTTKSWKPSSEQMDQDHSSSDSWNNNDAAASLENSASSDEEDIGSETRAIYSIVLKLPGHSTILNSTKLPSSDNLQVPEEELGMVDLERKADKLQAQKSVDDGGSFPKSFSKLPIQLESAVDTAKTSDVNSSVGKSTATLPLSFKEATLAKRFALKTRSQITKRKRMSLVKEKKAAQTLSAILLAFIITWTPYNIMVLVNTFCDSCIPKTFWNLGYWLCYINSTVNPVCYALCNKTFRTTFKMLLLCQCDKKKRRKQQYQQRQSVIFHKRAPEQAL
T2 sequence (P35367 whole entry): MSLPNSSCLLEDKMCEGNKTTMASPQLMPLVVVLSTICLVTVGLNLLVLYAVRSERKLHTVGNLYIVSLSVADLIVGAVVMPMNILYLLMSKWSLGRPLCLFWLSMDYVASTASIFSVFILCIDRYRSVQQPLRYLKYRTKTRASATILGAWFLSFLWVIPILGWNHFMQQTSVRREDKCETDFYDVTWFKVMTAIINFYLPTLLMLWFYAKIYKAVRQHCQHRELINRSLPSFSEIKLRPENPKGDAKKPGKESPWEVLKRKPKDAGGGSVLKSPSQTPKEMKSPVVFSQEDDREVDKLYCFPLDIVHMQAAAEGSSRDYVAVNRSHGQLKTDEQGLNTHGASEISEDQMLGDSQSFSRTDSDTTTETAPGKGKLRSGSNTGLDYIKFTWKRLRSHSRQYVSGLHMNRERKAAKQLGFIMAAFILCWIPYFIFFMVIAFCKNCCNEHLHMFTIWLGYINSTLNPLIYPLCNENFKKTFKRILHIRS

The IC50 is the concentration that inhibits the measured activity by half. Consider `c1cc2cc(c1)C[n+]1ccc(c3ccccc31)NCc1ccc(cc1)CNc1cc[n+](c3ccccc13)C2` [UCL 1684, 6,12,19,20,25,26-Hexahydro-5,27:13,18:21,24-trietheno-11,7-metheno-7H-dibenzo [b,n] [1,5,12,16]tetraazacyclotricosine-5,13-diium dibromide], for which the IC50 in test [1] is 1500 nM; in the test on SK potassium channels, 3 nM. Also, the “Nature of antagonism at M3 receptors” value in test [1] was “competitive antagonist”. For the same compound, the “Hill slope of inhibition curve, M3 receptor” value in test [1] (0.5 μM carbachol, Hill equation fit) was 1.8 ± 0.29. Also, the “Fractional inhibition of second carbachol response” value in test [1] (5 μM antagonist, 0.5 μM carbachol, 0 = none, 1 = complete inhibition) came to 0.99. Moreover, in test [1] (linear regression of log(DR-1) vs log UCL1684), the Schild plot slope is listed as 0.94. Also, in test [1] (read-out: Ki / KB from Schild analysis), the Kb amounted to 155 nM. The “Fractional inhibition of H1 receptor response” value on histamine receptor H1 was -0.008 ± 0.04. Further, the “Calcium response (integral) to second carbachol relative to first” value in test [2] (3.5 μM UCL 1684, 0.5 μM carbachol, human BSMC) came out at 0.38 ± 0.10. Further, the activity at 3.5 µM in test [2] (Homo sapiens, BSMC, read-out: CCH-evoked cytosolic calcium, % of control) is 38%.

The values above are taken from publication PMC7525093, “Bis-Quinolinium Cyclophane Blockers of SK Potassium Channels Are Antagonists of M3 Muscarinic Acetylcholine Receptors” (Frontiers in Pharmacology, 2020).
